The source of these data is US20190142993A1, “ULTRA-THIN, HIGH STRENGTH, DRUG-LOADED SUTURES AND COATINGS THEREOF” (The Johns Hopkins University, priority 2016, published 2019).

The data set has as its system corneas of Sprague-Dawley rats. To be noted: rat, in vivo. The method, then: For assessment of in vivo biocompatibility, animals were cared for and experiments conducted in accordance with protocols approved by the Animal Care and Use Committee of the Johns Hopkins University. Protocols are also in accordance with the ARVO Statement for the Use of Animals in Ophthalmic and Vision Research. […] Prior to implantation, rats were intraperitoneally anesthetized with a solution of Ketamine:Xylazine (75:5 mg/kg, Sigma Aldrich) and a drop of 0.5% proparacaine hydrochloride ophthalmic solution (Bausch & Lomb Inc., Tampa, Fla.) was applied to the cornea. Following implantation, the rats were evaluated for signs of infection every day for seven days. The rats were then euthanized and eyes enucleated, fixed in formalin (Sigma Aldrich) for 24 h, embedded in paraffin, cross sectioned, and stained with hematoxylin and eosin for histological evaluation.

In the case of nylon, the “tissue reaction (histological analysis)” value was “no obvious signs of neovascularization or inflammation”.
